{
  "source": "patent US20240246977A1",
  "about": "“DEGRADATION OF BRUTON'S TYROSINE KINASE (BTK) BY CONJUGATION OF BTK INHIBITORS WITH E3 LIGASE LIGAND AND METHOD OF USE” (BeiGene Switzerland GmbH, priority 2021, published 2024)",
  "key": {"BTK": {"target": "BTK (Homo sapiens, UniProt Q06187)", "sequence (Q06187 whole entry)": "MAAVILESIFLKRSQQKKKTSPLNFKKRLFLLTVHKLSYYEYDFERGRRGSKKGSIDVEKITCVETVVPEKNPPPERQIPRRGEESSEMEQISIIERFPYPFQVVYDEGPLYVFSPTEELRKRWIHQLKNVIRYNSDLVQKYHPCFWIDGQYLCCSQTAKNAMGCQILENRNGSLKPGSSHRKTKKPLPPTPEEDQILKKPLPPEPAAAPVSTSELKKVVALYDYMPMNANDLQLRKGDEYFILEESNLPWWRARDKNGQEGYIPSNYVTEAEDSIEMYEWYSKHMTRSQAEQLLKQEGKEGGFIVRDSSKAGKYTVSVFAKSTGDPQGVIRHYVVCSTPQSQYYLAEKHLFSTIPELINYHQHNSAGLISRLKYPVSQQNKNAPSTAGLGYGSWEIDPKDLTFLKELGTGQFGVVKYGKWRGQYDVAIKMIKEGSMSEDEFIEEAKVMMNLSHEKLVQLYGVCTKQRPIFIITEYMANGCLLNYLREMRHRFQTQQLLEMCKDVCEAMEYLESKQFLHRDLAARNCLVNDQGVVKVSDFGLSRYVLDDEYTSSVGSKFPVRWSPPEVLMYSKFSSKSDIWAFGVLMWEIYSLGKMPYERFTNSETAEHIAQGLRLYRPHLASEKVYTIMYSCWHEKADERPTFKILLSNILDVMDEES", "test": "BTK cell degradation in TMD-8 cells, HTRF assay", "type": "cell-based", "set-up": "endogenous in cells; host or cells: TMD-8 cells", "conditions": "6 h treatment, IC50 (DC50) of BTK degradation", "in_short": "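TMD-8 cells treated 6 h with 8-dose series (6-fold dilutions, 0.2% DMSO final), then lysed and BTK quantified by HTRF (337/665/620 nm) after overnight antibody incubation at room temperature. Degradation normalized to DMSO high and low controls; DC50 and Dmax from four-parameter fit.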"}, "HEK-293 cells": {"test_system": "HEK-293 cells", "test": "HEK-293 cytotoxicity detection (CellTiter-Glo)", "type": "cell-based", "conditions": "Homo sapiens, 72 h, 72 h incubation, CellTiter-Glo luminescence, read-out: HEK293", "in_short": "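HEK-293 cells exposed 72 h to 8 compounds doses (4-fold dilutions, top stock 5 mM at 500×) in 0.2% DMSO. Viability by CellTiter-Glo luminescence; inhibition normalised to DMSO high control and low control, IC50 from four-parameter curve fit.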"}},
  "data": [
    {"smiles": "Cc1c(C(=O)Nc2cscn2)ccc(-c2nn3c(c2C(N)=O)Nc2ccc(N4CCN(C5CC(c6ccc(N[C@@H]7CCC(=O)NC7=O)cc6)C5)CC4)cc2CC3)c1F", "note": "(stereo partly drawn) [Example B100, (R)-7-(4-(3-(4-((2,6-dioxopiperidin-3-yl)amino)phenyl)cyclobutyl)piperazin-1-yl)-2-(2-fluoro-3-methyl-4-(thiazol-4-ylcarbamoyl)phenyl)-9,10-dihydro-4H-benzo[d]pyrazolo[1,5-a][1,3]diazepine-3-carboxamide]", "values": [
      {"measurement": "DC50", "setting": "BTK", "result": 2.14, "unit": "nM"},
      {"measurement": "IC50", "setting": "HEK-293 cells", "result": 34.1, "unit": "nM"}
    ]},
    {"smiles": "Cc1cccc(NC(=O)c2ccc(-c3nn4c(c3C(N)=O)Nc3ccc(N5CCN(CCc6cccc7c6oc(=O)n7C6CCC(=O)NC6=O)CC5)cc3CC4)c(F)c2C)n1", "note": "(centres unmarked) [Example B61, 7-(4-(2-(3-(2,6-dioxopiperidin-3-yl)-2-oxo-2,3-dihydrobenzo[d]oxazol-7-yl)ethyl)piperazin-1-yl)-2-(2-fluoro-3-methyl-4-((6-methylpyridin-2-yl)carbamoyl)phenyl)-9,10-dihydro-4H-benzo[d]pyrazolo[1,5-a][1,3]diazepine-3-carboxamide]", "values": [
      {"measurement": "DC50", "setting": "BTK", "result": 1.09, "unit": "nM"},
      {"measurement": "IC50", "setting": "HEK-293 cells", "result": "> 10000", "unit": "nM"}
    ]},
    {"smiles": "COc1ccc2ccccc2c1C(=O)NCc1ccc(-c2nn3c(c2C(N)=O)Nc2ccc(N4CCN(CC5CCN(c6ccc(N7CCC(=O)NC7=O)cc6)CC5)CC4)cc2CC3)cc1C", "note": "[Example C10, 7-(4-((1-(4-(2,4-dioxotetrahydropyrimidin-1(2H)-yl)phenyl)piperidin-4-yl)methyl)piperazin-1-yl)-2-(4-((2-methoxy-1-naphthamido)methyl)-3-methylphenyl)-9,10-dihydro-4H-benzo[d]pyrazolo[1,5-a][1,3]diazepine-3-carboxamide]", "values": [
      {"measurement": "DC50", "setting": "BTK", "result": 10.1, "unit": "nM"},
      {"measurement": "IC50", "setting": "HEK-293 cells", "result": "> 10000", "unit": "nM"}
    ]},
    {"smiles": "COc1ccc(F)c(F)c1C(=O)NCc1ccc(-c2nn3c(c2C(N)=O)Nc2ccc(N4CCN(CC5CCN(c6ccc(N7CCC(=O)NC7=O)cc6)CC5)CC4)cc2CC3)cc1", "note": "[Example C25, 2-(4-((2,3-difluoro-6-methoxybenzamido)methyl)phenyl)-7-(4-((1-(4-(2,4-dioxotetrahydropyrimidin-1(2H)-yl)phenyl)piperidin-4-yl)methyl)piperazin-1-yl)-9,10-dihydro-4H-benzo[d]pyrazolo[1,5-a] [1,3]diazepine-3-carboxamide]", "values": [
      {"measurement": "DC50", "setting": "BTK", "result": 0.611, "unit": "nM"},
      {"measurement": "IC50", "setting": "HEK-293 cells", "result": "> 10000", "unit": "nM"}
    ]},
    {"smiles": "Cc1cccc(NC(=O)c2ccc(-c3nn4c(c3C(N)=O)Nc3ccc(N5CCN(CC6CCN(c7ccc(N8CCC(=O)NC8=O)cc7)CC6)CC5)cc3CC4)cc2Cl)n1", "note": "[Example B25, 2-(3-chloro-4-((6-methylpyridin-2-yl)carbamoyl)phenyl)-7-(4-((1-(4-(2,4-dioxotetrahydropyrimidin-1(2H)-yl)phenyl)piperidin-4-yl)methyl)piperazin-1-yl)-9,10-dihydro-4H-benzo[d]pyrazolo[1,5-a][1,3]diazepine-3-carboxamide]", "values": [
      {"measurement": "DC50", "setting": "BTK", "result": 0.415, "unit": "nM"},
      {"measurement": "IC50", "setting": "HEK-293 cells", "result": "> 10000", "unit": "nM"}
    ]},
    {"smiles": "COc1ccc(C(F)(F)F)cc1C(=O)NCc1ccc(-c2nn3c(c2C(N)=O)Nc2ccc(N4CCN(CC5CCN(c6ccc(N7CCC(=O)NC7=O)cc6)CC5)CC4)cc2CC3)c(OC)c1", "note": "[Example C27, 7-(4-((1-(4-(2,4-dioxotetrahydropyrimidin-1(2H)-yl)phenyl)piperidin-4-yl)methyl)piperazin-1-yl)-2-(2-methoxy-4-((2-methoxy-5-(trifluoromethyl)benzamido)methyl)phenyl)-9,10-dihydro-4H-benzo[d]pyrazolo[1,5-a][1,3]diazepine-3-carboxamide]", "values": [
      {"measurement": "DC50", "setting": "BTK", "result": 1.76, "unit": "nM"},
      {"measurement": "IC50", "setting": "HEK-293 cells", "result": 209, "unit": "nM"}
    ]},
    {"smiles": "Cc1nc(NC(=O)c2ccc(-c3nn4c(c3C(N)=O)Nc3ccc(N5CCN(CC6CN(c7ccc(N8CCC(=O)NC8=O)cc7)C6)CC5)cc3CC4)c(F)c2C)ccc1Cl", "note": "[Example B53, 2-(4-((5-chloro-6-methylpyridin-2-yl)carbamoyl)-2-fluoro-3-methylphenyl)-7-(4-((1-(4-(2,4-dioxotetrahydropyrimidin-1(2H)-yl)phenyl)azetidin-3-yl)methyl)piperazin-1-yl)-9,10-dihydro-4H-benzo[d]pyrazolo[1,5-a][1,3]diazepine-3-carboxamide]", "values": [
      {"measurement": "DC50", "setting": "BTK", "result": 18.6, "unit": "nM"},
      {"measurement": "IC50", "setting": "HEK-293 cells", "result": "> 10000", "unit": "nM"}
    ]},
    {"smiles": "COc1ccc(C(F)(F)F)cc1C(=O)NCc1ccc(-c2nn3c(c2C(N)=O)Nc2ccc(N4CCN(CC5CCN(c6ccc(N7CCC(=O)NC7=O)cc6)CC5)CC4)cc2CC3)c(F)c1", "note": "[Example C24, 7-(4-((1-(4-(2,4-dioxotetrahydropyrimidin-1(2H)-yl)phenyl)piperidin-4-yl)methyl)piperazin-1-yl)-2-(2-fluoro-4-((2-methoxy-5-(trifluoromethyl)benzamido)methyl)phenyl)-9,10-dihydro-4H-benzo[d]pyrazolo[1,5-a][1,3]diazepine-3-carboxamide]", "values": [
      {"measurement": "DC50", "setting": "BTK", "result": 2.11, "unit": "nM"},
      {"measurement": "IC50", "setting": "HEK-293 cells", "result": "> 10000", "unit": "nM"}
    ]},
    {"smiles": "Cc1cccc(NC(=O)c2ccc(-c3nn4c(c3C(N)=O)Nc3ccc(N5CCN(C6CC(c7ccc(N8CCC(=O)NC8=O)cc7)C6)CC5)cc3CC4)c(F)c2C)n1", "note": "(centres unmarked) [Example B64, 7-(4-(3-(4-(2,4-dioxotetrahydropyrimidin-1(2H)-yl)phenyl)cyclobutyl)piperazin-1-yl)-2-(2-fluoro-3-methyl-4-((6-methylpyridin-2-yl)carbamoyl)phenyl)-9,10-dihydro-4H-benzo[d]pyrazolo[1,5-a][1,3]diazepine-3-carboxamide]", "values": [
      {"measurement": "DC50", "setting": "BTK", "result": 4.85, "unit": "nM"},
      {"measurement": "IC50", "setting": "HEK-293 cells", "result": "> 10000", "unit": "nM"}
    ]},
    {"smiles": "Cc1cccc(NC(=O)c2ccc(-c3nn4c(c3C(N)=O)Nc3ccc(N5CCN(CCc6cc(F)c(C7CCC(=O)NC7=O)c(F)c6)CC5)cc3CC4)c(F)c2C)n1", "note": "(centres unmarked) [Example B62, 7-(4-(4-(2,6-dioxopiperidin-3-yl)-3,5-difluorophenethyl)piperazin-1-yl)-2-(2-fluoro-3-methyl-4-((6-methylpyridin-2-yl)carbamoyl)phenyl)-9,10-dihydro-4H-benzo[d]pyrazolo[1,5-a] [1,3]diazepine-3-carboxamide]", "values": [
      {"measurement": "DC50", "setting": "BTK", "result": 1.7, "unit": "nM"},
      {"measurement": "IC50", "setting": "HEK-293 cells", "result": "> 10000", "unit": "nM"}
    ]},
    {"smiles": "Cc1c(C(=O)Nc2cc(C)n(C)n2)ccc(-c2nn3c(c2C(N)=O)Nc2ccc(N4CCN(CC5CCN(c6ccc(N7CCC(=O)NC7=O)cc6)CC5)CC4)cc2CC3)c1F", "note": "[Example B86, 2-(4-((1,5-dimethyl-1H-pyrazol-3-yl)carbamoyl)-2-fluoro-3-methylphenyl)-7-(4-((1-(4-(2,4-dioxotetrahydropyrimidin-1(2H)-yl)phenyl)piperidin-4-yl)methyl)piperazin-1-yl)-9,10-dihydro-4H-benzo[d]pyrazolo[1,5-a][1,3]diazepine-3-carboxamide]", "values": [
      {"measurement": "DC50", "setting": "BTK", "result": 4.37, "unit": "nM"},
      {"measurement": "IC50", "setting": "HEK-293 cells", "result": "> 10000", "unit": "nM"}
    ]},
    {"smiles": "COc1ccnc(NC(=O)c2ccc(-c3nn4c(c3C(N)=O)Nc3ccc(N5CCN(CC6CCN(c7ccc(N8CCC(=O)NC8=O)cc7)CC6)CC5)cc3CC4)cc2)c1", "note": "[Example B9, 7-(4-((1-(4-(2,4-dioxotetrahydropyrimidin-1(2H)-yl)phenyl)piperidin-4-yl)methyl)piperazin-1-yl)-2-(4-((4-methoxypyridin-2-yl)carbamoyl)phenyl)-9,10-dihydro-4H-benzo[d]pyrazolo[1,5-a][1,3]diazepine-3-carboxamide]", "values": [
      {"measurement": "DC50", "setting": "BTK", "result": 6.14, "unit": "nM"},
      {"measurement": "IC50", "setting": "HEK-293 cells", "result": "> 10000", "unit": "nM"}
    ]},
    {"smiles": "Cc1c(C(=O)Nc2cn(C)cn2)ccc(-c2nn3c(c2C(N)=O)Nc2ccc(N4CCN(CC5CCN(c6ccc(N7CCC(=O)NC7=O)cc6)CC5)CC4)cc2CC3)c1F", "note": "[Example B87, 7-(4-((1-(4-(2,4-dioxotetrahydropyrimidin-1(2H)-yl)phenyl)piperidin-4-yl)methyl)piperazin-1-yl)-2-(2-fluoro-3-methyl-4-((1-methyl-1H-imidazol-4-yl)carbamoyl)phenyl)-9,10-dihydro-4H-benzo[d]pyrazolo[1,5-a][1,3]diazepine-3-carboxamide]", "values": [
      {"measurement": "DC50", "setting": "BTK", "result": 0.591, "unit": "nM"},
      {"measurement": "IC50", "setting": "HEK-293 cells", "result": "> 10000", "unit": "nM"}
    ]},
    {"smiles": "COc1ccc2ccccc2c1C(=O)NCc1ccc(-c2nn3c(c2C(N)=O)Nc2ccc(N4CCN(CC5CCN(c6ccc(N7CCC(=O)NC7=O)cc6)CC5)CC4)cc2CC3)cc1F", "note": "[Example C20, 7-(4-((1-(4-(2,4-dioxotetrahydropyrimidin-1(2H)-yl)phenyl)piperidin-4-yl)methyl)piperazin-1-yl)-2-(3-fluoro-4-((2-methoxy-1-naphthamido)methyl)phenyl)-9,10-dihydro-4H-benzo[d]pyrazolo[1,5-a][1,3]diazepine-3-carboxamide]", "values": [
      {"measurement": "DC50", "setting": "BTK", "result": 0.956, "unit": "nM"},
      {"measurement": "IC50", "setting": "HEK-293 cells", "result": "> 10000", "unit": "nM"}
    ]},
    {"smiles": "Cc1c(C(=O)Nc2cc(C(F)(F)F)ccn2)ccc(-c2nn3c(c2C(N)=O)Nc2ccc(N4CCN(CC5CCN(c6ccc(N7CCC(=O)NC7=O)cc6)CC5)CC4)cc2CC3)c1F", "note": "[Example B15, 7-(4-((1-(4-(2,4-dioxotetrahydropyrimidin-1(2H)-yl)phenyl)piperidin-4-yl)methyl)piperazin-1-yl)-2-(2-fluoro-3-methyl-4-((4-(trifluoromethyl)pyridin-2-yl)carbamoyl)phenyl)-9,10-dihydro-4H-benzo[d]pyrazolo[1,5-a][1,3]diazepine-3-carboxamide]", "values": [
      {"measurement": "DC50", "setting": "BTK", "result": 1.13, "unit": "nM"},
      {"measurement": "IC50", "setting": "HEK-293 cells", "result": 185, "unit": "nM"}
    ]},
    {"smiles": "NC(=O)c1c(-c2ccc(Oc3ccccc3)cc2)nn2c1Nc1ccc(N3CCN(CC4CCN(c5ccc6c(c5)C(=O)N(C5CCC(=O)NC5=O)C6=O)CC4)CC3)cc1CC2", "note": "(centres unmarked) [Example A6, 7-(4-((1-(2-(2,6-dioxopiperidin-3-yl)-1,3-dioxoisoindolin-5-yl)piperidin-4-yl)methyl)piperazin-1-yl)-2-(4-phenoxyphenyl)-9,10-dihydro-4H-benzo[d]pyrazolo[1,5-a][1,3]diazepine-3-carboxamide]", "values": [
      {"measurement": "DC50", "setting": "BTK", "result": 3.42, "unit": "nM"},
      {"measurement": "IC50", "setting": "HEK-293 cells", "result": 163, "unit": "nM"}
    ]}
  ]
}
